Consider 38 compounds from US10508120B2, “TYK2 inhibitors and uses thereof” (Nimbus Lakshmi, Inc., priority 2017, dated 2019).

For experiment [1], the target named is human TYK2 (JH2domain-pseudokinase) (Homo sapiens (Human), UniProt P29597). Kind of experiment: TYK2 JH2 Domain Binding Assay (KINOMEscan). An outline of the steps:
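Displacement of a DNA-tagged TYK2 JH2 fusion (human, aa G556–D888, HEK293 extract, <0.1 nM) from ligand-coated beads over 1 h at RT; binding buffer PBS/0.05% Tween 20/10 mM DTT/0.1% BSA.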

Experiment [2] has as its target JAK2 kinase domain (JH1) (Homo sapiens (Human), UniProt O60674). In words: JAK2 Radioactive Kinase Assay. The class given is biochemical. Particulars: compound at 10 μM; ATP 10 μM; read-out: JAK2 JH1% Inhibition @ 10 μM. A digest of the protocol:
(§1)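 Compounds were tested at a single concentration of 10 μM in a radiometric kinase format against each isolated kinase domain. Activity is reported as percent inhibition at that concentration.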

The target of experiment [3] is Tyk2 kinase domain (DH1) (Homo sapiens (Human), UniProt P29597). Kind of experiment: Tyk2 Radioactive Kinase Assay. Particulars: compound at 10 μM; ATP 10 μM; read-out: Tyk2 JH1% Inhibition @ 10 μM. The experiment is classed as biochemical. A digest of the protocol: as §1
Sequence of Tyk2 kinase domain (DH1) (P29597 897-1176): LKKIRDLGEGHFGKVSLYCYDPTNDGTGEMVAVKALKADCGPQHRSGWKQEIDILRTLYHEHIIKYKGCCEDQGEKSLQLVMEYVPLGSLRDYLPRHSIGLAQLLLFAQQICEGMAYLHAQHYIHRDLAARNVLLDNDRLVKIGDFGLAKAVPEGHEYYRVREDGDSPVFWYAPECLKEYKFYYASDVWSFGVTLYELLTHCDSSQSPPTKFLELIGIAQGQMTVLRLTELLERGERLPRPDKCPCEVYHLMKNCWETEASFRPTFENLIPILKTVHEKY

Sequence of JAK2 kinase domain (JH1) (O60674 849-1124): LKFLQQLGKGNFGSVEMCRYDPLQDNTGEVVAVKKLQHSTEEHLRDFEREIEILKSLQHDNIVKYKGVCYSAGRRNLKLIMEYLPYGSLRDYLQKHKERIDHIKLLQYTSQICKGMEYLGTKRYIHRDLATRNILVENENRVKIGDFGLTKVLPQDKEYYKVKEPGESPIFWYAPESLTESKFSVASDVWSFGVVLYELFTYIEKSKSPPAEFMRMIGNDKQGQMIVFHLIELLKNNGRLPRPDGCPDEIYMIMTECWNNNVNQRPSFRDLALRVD
Sequence of human TYK2 (JH2domain-pseudokinase) (P29597 556-888): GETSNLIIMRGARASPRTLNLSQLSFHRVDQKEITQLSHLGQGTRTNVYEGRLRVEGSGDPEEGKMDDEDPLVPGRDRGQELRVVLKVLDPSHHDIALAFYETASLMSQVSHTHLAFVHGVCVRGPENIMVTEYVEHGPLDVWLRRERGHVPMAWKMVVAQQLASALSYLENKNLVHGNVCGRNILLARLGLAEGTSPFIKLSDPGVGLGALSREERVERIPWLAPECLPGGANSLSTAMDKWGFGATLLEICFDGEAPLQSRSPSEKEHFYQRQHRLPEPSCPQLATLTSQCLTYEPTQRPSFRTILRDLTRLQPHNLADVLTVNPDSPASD

Regarding `CNc1cc(Nc2cc(Cl)cnc2OC(C)C)nc2c(C(N)=O)cnn12` [I-78], the Kd in experiment [1] was less than 0.2 nM. In addition, the inhibition at 10 µM in experiment [2] and in experiment [3] was less than 50% each time.

Take `CC(C)Oc1ncc(Cl)cc1Nc1cc(N)n2ncc(C(N)=O)c2n1` [I-79]: the Kd in experiment [1] was in the range of 0.2 to 1 nM. Further, the inhibition at 10 µM in experiment [2] and in experiment [3] was less than 50% in each case.

`CNc1cc(Nc2cc(Cl)cnc2OC2CCC2)nc2c(C(N)=O)cnn12` [I-80] gave a Kd in experiment [1] of 0.2 to 1 nM. The inhibition at 10 µM in experiment [2] and in experiment [3] was less than 50% each time.

Take `NC(=O)c1cnn2c(N)cc(Nc3cc(Cl)cnc3OC3CCC3)nc12` [I-81]: in experiment [1], the Kd is 1 to 10 nM. Also, the inhibition at 10 µM in experiment [2] and in experiment [3] was less than 50% throughout.

Take `NC(=O)c1cnn2c(N)cc(Nc3cc(Cl)cnc3OC3CCOC3)nc12` (stereo not drawn) [I-82, 7-amino-5-((5-chloro-2-((tetrahydrofuran-3-yl)oxy)pyridin-3-yl)amino) pyrazolo[1,5-a]pyrimidine-3-carboxamide]: the Kd in experiment [1] is 1 to 10 nM. For the same compound, the inhibition at 10 µM in experiment [2] and in experiment [3] was less than 50% in each case.

In turn, `CNc1cc(Nc2cccnc2OC)nc2c(C(=O)NC3COC3)cnn12` [I-83] registered a Kd in experiment [1] of more than 10 nM. Further, the inhibition at 10 µM in experiment [2] and in experiment [3] was less than 50% in each case.

In experiment [1], `CNc1cc(Nc2cccn(-c3ccn(C4CC4)n3)c2=O)nc2c(C(=O)NC3COC3)cnn12` [I-89, 5-((1-(1-cyclopropyl-1H-pyrazol-3-yl)-2-oxo-1,2-dihydropyridin-3-yl)amino)-7-(methylamino)-N-(oxetan-3-yl)pyrazolo[1,5-a]pyrimidine-3-carboxamide] registered a Kd of more than 10 nM. Moreover, the inhibition at 10 µM in experiment [2] and in experiment [3] was less than 50% in each case.

Compound `CNc1cc(Nc2cccnc2OC(F)(F)F)nc2c(C(=O)NC3CC3)cnn12` [I-90] had a dissociation constant Kd in experiment [1] of 0.2 to 1 nM. The inhibition at 10 µM in experiment [2] and in experiment [3] was less than 50% throughout.

`CNc1cc(Nc2cccnc2OC(F)(F)F)nc2c(C(N)=O)cnn12` [I-91]: the Kd in experiment [1] is less than 0.2 nM. Besides, the inhibition at 10 µM in experiment [2] and in experiment [3] was less than 50% throughout.

In turn, `CNc1cc(Nc2cccnc2OC(F)(F)F)nc2c(C(=O)NC3COC3)cnn12` [I-92] yielded a Kd in experiment [1] of more than 10 nM. For the same compound, the inhibition at 10 µM in experiment [2] and in experiment [3] was less than 50% each time.

`CNc1cc(Nc2cc(Cl)cnc2OC2CCC2)nc2c(C(=O)NC3COC3)cnn12` [I-93, 5-((5-chloro-2-cyclobutoxypyridin-3-yl)amino)-7-(methylamino)-N-(oxetan-3-yl)pyrazolo[1,5-a]pyrimidine-3-carboxamide] gave an equilibrium dissociation constant (Kd) in experiment [1] of more than 10 nM. The inhibition at 10 µM in experiment [2] and in experiment [3] was less than 50% each time.

In experiment [1], `CNc1cc(Nc2cc(Cl)cnc2O[C@H]2C[C@@H](OC)C2)nc2c(C(N)=O)cnn12` [I-96] returned a Kd of 0.2 to 1 nM. Further, the inhibition at 10 µM in experiment [2] and in experiment [3] was less than 50% throughout.

Take `CO[C@H]1C[C@@H](Oc2ncc(Cl)cc2Nc2cc(N)n3ncc(C(N)=O)c3n2)C1` [I-97]: in experiment [1], the Kd was in the range of 1 to 10 nM. Moreover, the inhibition at 10 µM in experiment [2] and in experiment [3] was less than 50% throughout.

`CNc1cc(Nc2cccn(-c3ccn(C4CC4)n3)c2=O)nc2c(C(=O)NC3CC3)cnn12` [I-98]: the Kd in experiment [1] was less than 0.2 nM. The inhibition at 10 µM in experiment [2] and in experiment [3] was less than 50% each time.

For the compound `Cc1cc(Nc2cc(N)n3ncc(C(N)=O)c3n2)c(=O)n(-c2ccnn2C)c1` [I-99], the Kd in experiment [1] fell in the range of 1 to 10 nM. Besides, the inhibition at 10 µM in experiment [2] and in experiment [3] was less than 50% in each case.

For `NC(=O)c1cnn2c(N)cc(Nc3cccn(C4CCN(CC(F)F)CC4)c3=O)nc12` [I-100], the Kd in experiment [1] was 1 to 10 nM. Also, the inhibition at 10 µM in experiment [2] and in experiment [3] was less than 50% in each case.

`Nc1cc(Nc2cccc(N3CCCC3=O)n2)nc2c(C(=O)NC3COC3)cnn12` [I-101, 7-amino-N-(oxetan-3-yl)-5-((6-(2-oxopyrrolidin-1-yl)pyridin-2-yl)amino)pyrazolo[1,5-a]pyrimidine-3-carboxamide] showed a Kd in experiment [1] of more than 10 nM. Further, the inhibition at 10 µM in experiment [2] and in experiment [3] was less than 50% throughout.

Regarding `NC(=O)c1cnn2c(N)cc(Nc3cccnc3OC(F)(F)F)nc12` [I-102, 7-amino-5-((2-(trifluoromethoxy)pyridin-3-yl)amino)pyrazolo[1,5-a]-pyrimidine-3-carboxamide], the Kd in experiment [1] fell in the range of 0.2 to 1 nM. In addition, the inhibition at 10 µM in experiment [2] was more than 90%; in experiment [3], 70 to 90%.

For `Nc1cc(Nc2cccnc2OC(F)(F)F)nc2c(C(=O)NC3COC3)cnn12` [I-103, 7-amino-N-(oxetan-3-yl)-5-((2-(trifluoromethoxy)pyridin-3-yl)amino)pyrazolo[1,5-a]pyrimidine-3-carboxamide], the Kd in experiment [1] is more than 10 nM. The inhibition at 10 µM in experiment [2] and in experiment [3] was less than 50% throughout.

In experiment [1], `CNc1cc(Nc2cccn(-c3cc(C)on3)c2=O)nc2c(C(=O)NC3COC3)cnn12` [I-104] gave a Kd of 1 to 10 nM. Moreover, the inhibition at 10 µM in experiment [2] and in experiment [3] was less than 50% in each case.

The compound `CNc1cc(Nc2cccn(C3CCOC3)c2=O)nc2c(C(N)=O)cnn12` (stereo not drawn) [I-108] showed a Kd in experiment [1] of 0.2 to 1 nM. Further, the inhibition at 10 µM in experiment [2] and in experiment [3] was less than 50% in each case.

The compound `CNc1cc(Nc2cccn(-c3ccc(F)cc3)c2=O)nc2c(C(=O)NC3COC3)cnn12` [I-109] returned a Kd in experiment [1] of more than 10 nM. The inhibition at 10 µM in experiment [2] and in experiment [3] was less than 50% each time.

For the compound `CNc1cc(Nc2cc(Cl)cnc2O[C@H]2C[C@H](OC)C2)nc2c(C(N)=O)cnn12` [I-111], the Kd in experiment [1] is 0.2 to 1 nM. The inhibition at 10 µM in experiment [2] and in experiment [3] was less than 50% each time.

Compound `CNc1cc(Nc2cc(N3CCCC3)nc(C(F)(F)F)c2)nc2c(C(N)=O)cnn12` [I-112] had a Kd in experiment [1] of 1 to 10 nM. Besides, the inhibition at 10 µM in experiment [2] and in experiment [3] was less than 50% throughout.

Turning to `Nc1cc(Nc2cccnc2OC(F)(F)F)nc2c(C(=O)NC3CC3)cnn12` [I-113, 7-amino-N-cyclopropyl-5-((2-(trifluoromethoxy)pyridin-3-yl)amino)pyrazolo[1,5-a]pyrimidine-3-carboxamide], the Kd in experiment [1] was 1 to 10 nM. Moreover, the inhibition at 10 µM in experiment [2] and in experiment [3] was more than 90% throughout.

In experiment [1], `CNc1cc(Nc2cc(C)cn(-c3cnn(C4CC4)c3C)c2=O)nc2c(C(N)=O)cnn12` [I-114] returned an equilibrium dissociation constant (Kd) of 1 to 10 nM. The inhibition at 10 µM in experiment [2] and in experiment [3] was less than 50% in each case.

On to `CNc1cc(Nc2cccn(-c3ccc(F)cn3)c2=O)nc2c(C(=O)NC3CC3)cnn12` [I-116], for which the Kd in experiment [1] was less than 0.2 nM. For the same compound, the inhibition at 10 µM in experiment [2] and in experiment [3] was less than 50% throughout.

`CCOc1ccc(-n2cccc(Nc3cc(NC)n4ncc(C(=O)NC5CC5)c4n3)c2=O)nn1` [I-118] displayed a Kd in experiment [1] of 0.2 to 1 nM. For the same compound, the inhibition at 10 µM in experiment [2] and in experiment [3] was less than 50% each time.

Consider `CO[C@H]1C[C@H](Oc2ncc(Cl)cc2Nc2cc(N)n3ncc(C(N)=O)c3n2)C1` [I-119], for which, in experiment [1], the Kd was 1 to 10 nM. In addition, the inhibition at 10 µM in experiment [2] and in experiment [3] was less than 50% in each case.

`NC(=O)c1cnn2c(N)cc(Nc3cc(N4CCCC4)nc(C(F)(F)F)c3)nc12` [I-120] returned a Kd in experiment [1] of 1 to 10 nM. The inhibition at 10 µM in experiment [2] and in experiment [3] was less than 50% in each case.

In turn, `CNc1cc(Nc2cccn(-c3ccnc(C)n3)c2=O)nc2c(C(=O)NC3CC3)cnn12` [I-125] had a dissociation constant Kd in experiment [1] of less than 0.2 nM. For the same compound, the inhibition at 10 µM in experiment [2] and in experiment [3] was less than 50% each time.

The compound `CNc1cc(Nc2cccn(-c3ccc(C(=O)N4CCCC4)cn3)c2=O)nc2c(C(=O)N[C@H]3C[C@H]3F)cnn12` [I-128] displayed a Kd in experiment [1] of less than 0.2 nM. The inhibition at 10 µM in experiment [2] and in experiment [3] was less than 50% throughout.

Compound `CNc1cc(Nc2cccn(-c3ccc(C(=O)N4CCCC4)cn3)c2=O)nc2c(C(=O)NC3CC3)cnn12` [I-129] returned a Kd in experiment [1] of less than 0.2 nM. Moreover, the inhibition at 10 µM in experiment [2] and in experiment [3] was less than 50% in each case.

Compound `CNc1cc(Nc2cccn(-c3cccc(C)n3)c2=O)nc2c(C(=O)NC3CCC3)cnn12` [I-130, N-cyclobutyl-5-((6′-methyl-2-oxo-2H-[1,2′-bipyridin]-3-yl)amino)-7-(methylamino)pyrazolo[1,5-a]pyrimidine-3-carboxamide] yielded a Kd in experiment [1] of less than 0.2 nM. The inhibition at 10 µM in experiment [2] and in experiment [3] was less than 50% in each case.

In experiment [1], `CNc1cc(Nc2ccnn(-c3ccc(F)cc3)c2=O)nc2c(C(=O)N[C@H]3C[C@H]3F)cnn12` [I-134] registered a Kd of 0.2 to 1 nM. The inhibition at 10 µM in experiment [2] and in experiment [3] was less than 50% in each case.

As for `CNc1cc(Nc2cccn(-c3ccn(C)n3)c2=O)nc2c(C(=O)N[C@H]3C[C@H]3F)cnn12` [I-140], in experiment [1], the Kd was less than 0.2 nM. Moreover, the inhibition at 10 µM in experiment [2] and in experiment [3] was less than 50% in each case.

Regarding `CNc1cc(Nc2cccn(-c3ccc(C(=O)N4CCC4)cn3)c2=O)nc2c(C(=O)N[C@H]3C[C@H]3F)cnn12` [I-142], the Kd in experiment [1] was less than 0.2 nM. For the same compound, the inhibition at 10 µM in experiment [2] and in experiment [3] was less than 50% each time.

In experiment [1], `CNc1cc(Nc2cccnc2OC(C)C)nc2c(C(=O)NC3CC3)cnn12` [I-146] showed a Kd of 0.2 to 1 nM. Besides, the inhibition at 10 µM in experiment [2] and in experiment [3] was less than 50% in each case.
